Several values for one entry are separate records, joined by “and”; a condition that tells them apart may be missing. Identical values can stand only once. Like-named read-outs stand apart in the source and are kept apart here.
Experiments:
human P450 51A1 [1] = biological target: T1, human P450 51A1 (Homo sapiens, UniProt Q16850); test: Stopped-flow koff measurements of P450 51A1-sterol complexes with ketoconazole trap; assay type: binding; design: made in house; host or cells: Escherichia coli; settings: 23 °C, 10 μM ketoconazole trap, 1 μM P450 51A1
T1 sequence (Q16850 1-509): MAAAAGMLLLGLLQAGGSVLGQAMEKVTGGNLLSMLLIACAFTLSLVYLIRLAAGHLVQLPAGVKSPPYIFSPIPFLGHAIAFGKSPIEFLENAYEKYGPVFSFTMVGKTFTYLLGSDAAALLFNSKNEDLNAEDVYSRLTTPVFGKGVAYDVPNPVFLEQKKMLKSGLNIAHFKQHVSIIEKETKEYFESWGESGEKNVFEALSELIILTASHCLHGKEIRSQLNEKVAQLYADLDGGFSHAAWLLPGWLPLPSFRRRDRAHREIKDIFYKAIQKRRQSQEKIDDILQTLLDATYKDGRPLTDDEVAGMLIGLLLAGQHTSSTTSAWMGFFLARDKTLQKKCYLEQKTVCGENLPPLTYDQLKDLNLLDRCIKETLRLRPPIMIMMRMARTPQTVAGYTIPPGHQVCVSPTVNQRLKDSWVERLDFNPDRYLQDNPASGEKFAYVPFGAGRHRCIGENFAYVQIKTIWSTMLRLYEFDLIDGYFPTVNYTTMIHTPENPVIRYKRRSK
Experimental: All assays were done at 23 °C in an OLIS-RSM 1000 stopped-flow spectrophotometer, collecting data every 1 ms over a range of 332 to 565 nm with slit widths of 1.24 mm (8 nm bandpass) and gratings with 400 lines/mm and 500 nm blaze. One syringe contained 20 μM ketoconazole dissolved in 100 mM potassium phosphate buffer (pH 7.4). In a preliminary experiment in which this was mixed with an equal volume of 2 μM P450 51A1 (same buffer), the observed rate of binding (ΔA430) was 25 s^−1.
P450 51A1 (2 μM) was premixed with an equivalent concentration of each of the sterols (in HPCD). Each of these solutions was placed in a drive syringe and rapidly mixed with 20 μM ketoconazole (yielding final concentrations of 1 μM P450 51A1 and 10 μM ketoconazole). The rate of the ΔA430-A390 change was used as the koff rate, that is, the rate at which the sterol left the P450 and allowed it to bind to the trap ligand ketoconazole.

human P450 51A1 [2] = biological target: T1, human P450 51A1; test: Spectral (difference spectroscopy) Kd estimates of P450 51A1-sterol complexes; assay type: binding; design: made in house; host or cells: Escherichia coli
Experimental: Kd values were estimated by difference spectroscopy. P450 51A1 (1.0 μM) was in each of two glass cuvettes (in 100 mM potassium phosphate buffer, pH 7.4) and a baseline was recorded (OLIS-Amino DW2a). Aliquots of a solution of each sterol–HPCD complex were added to the sample cuvette and an equivalent amount of HPCD was added to the reference cuvette, and spectra were recorded. The time between the collection of individual spectra was ∼3 min. The maximum absorbance difference (usually ΔA390-A418) was plotted versus the nominal concentration of added sterol, and the data were fit to hyperbolae in GraphPad Prism software (GraphPad, https://www.graphpad.com), using a quadratic equation to correct the ligand concentration for the enzyme-bound concentration (used as Y=B+(A/2)∗(1/E)∗((Kd+E+X)-sqrt((Kd + E+X)^∧2-(4∗E∗X)) in Prism software). The linear regression fits include the internal error estimates (SE).

human P450 51A1 [3] = test: Kinetic modeling (KinTek Explorer) of the single-turnover time course; settings: for k^+ of sterol binding to P450 51A1 (kon) used for fitting: all kon set at this value; for k^- of oxidation step of the P450-sterol complex: irreversible, set to zero; for k^- of sterol binding to P450 51A1 (koff) used for fitting / k^+ of oxidation step of the P450-sterol complex: optimized model; for k^+ of oxidation step of the P450-sterol complex: label = sterol oxidized in the step
From the text: The initial koff rate constants used in fitting were the koff rates measured in the stopped-flow trap experiments (Fig. 9). All three oxidation reactions are irreversible, and thus k-2, k-4, and k-6 were set to zero.
Data were imported into KinTek Explorer software (v. 11.01, KinTek, https://kintekcorp.com/software) ([63], [64]) as txt files and processed using an Apple computer (operating system 11.6.2).

human P450 51A1 [4] = biological target: T1, human P450 51A1; test: Steady-state LC-UV assay of sterol oxidation to dihydro FF-MAS by reconstituted P450 51A1
Experimental: Steady-state incubations (500 μl) were generally done at 37 °C with 0.025 μM P450 51A1, 0.10 μM NADPH-P450 reductase, 100 μM L-α-dilauroyl-sn-glycero-3-phosphocholine, 50 mM potassium phosphate buffer (pH 7.4), 10% (v/v) glycerol, and an indicated concentration of each sterol (in 45% (w/v) HPCD). […] The sterols (stored at 4 °C) were prepared as described above and were heated to 37 °C and sonicated prior to use. Sterol working stocks were diluted in HPCD to ensure a constant concentration of cyclodextrin in each reaction. […] Accordingly, all reactions were done with this concentration of glycerol.
Reactions were preincubated (5 min, 37 °C) prior to initiation with an NADPH-regenerating system (0.5 mM NADP^+, 10 mM glucose 6-phosphate, and 2 μg ml^−1 glucose 6-phosphate dehydrogenase) ([60]) and were stopped after 5 min with the addition of CH2Cl2 (5 ml). (The NADPH-generating system, in addition to lower cost than NADPH, drives the reaction to avoid inhibition of the reductase by accumulated NADP^+). For the 14α-aldehyde, the times of preincubation and reaction were reduced (to 2 min and 1 min, respectively). The quenched mixture was centrifuged (2000g, 5 min), and 4 ml of the bottom (organic) layer was transferred to vials and brought to dryness under a stream of N2 gas. The dried residue was resuspended in CH3OH (100 μl) and was analyzed by UPLC using a 2.1 mm × 100 mm (1.7 μm) octadecylsilane (C18) column (held at 25 °C) and a Waters Acquity UPLC system. Samples (4 °C) were injected (10 μl) at a flow rate of 0.20 ml min^−1 using an isocratic mobile phase of CH3CN (only). The product (FF-MAS) was detected using a Waters Acquity photodiode array detector set at 250 nm (Fig. 4B). Data were processed using the MassLynx software (http://www.waters.com/waters/en_US/MassLynx-Mass-Spectrometry-Software-/nav.htm?cid=513164&locale=en_US), and the amount of product formed was calculated by comparison to a twelve-point dihydro FF-MAS standard curve. Determination of kcat and Km for each reaction was carried out by fitting the data to a Michaelis–Menten hyperbola, which was done using GraphPad Prism.
Incubations were run in triplicate, and the mean values (±SD) were calculated and plotted. The linear regression fits include the Prism error estimates for internal fitting (SE).

[5] = 1.0 μM P450 51A1, quadratic fit

## CC(C)CCCC(C)[C@H]1CC[C@@]2(CO)C3=C(CC[C@]12C)[C@@]1(C)CC[C@H](O)C(C)(C)C1CC3 (stereo partly drawn) [14α-CH2OH dihydrolanosterol, 24,25-dihydro-14α-CH2OH lanosterol]
Human P450 51A1 [1]
  koff: 0.022 ± 0.001 s⁻¹
Human P450 51A1 [2]; [5]
  Kd: sub-μM
Human P450 51A1 [2]; 1.0 μM P450 51A1, quadratic fit, read-out: Kd
  Kd: 20 ± 40 nM
Human P450 51A1 [3]
  k^+ of sterol binding to P450 51A1 (kon) used for fitting: 2e+06 M⁻¹ s⁻¹
  k^- of oxidation step of the P450-sterol complex: 0
  k^- of sterol binding to P450 51A1 (koff) used for fitting: 0.040 s⁻¹
  k^+ of oxidation step of the P450-sterol complex: 3.5 s⁻¹
Human P450 51A1 [4]; oxidation to dihydro FF-MAS
  kcat relative to dihydrolanosterol: ~1.5 fold
  kcat/Km relative to dihydrolanosterol: ~1.5 fold
Human P450 51A1 [4]; substrate 0.25 µM, listed as 14-CH2OH dihydrolanosterol
  Rate of FF-MAS formation (replicates): 1.4 min-1 (2×) and 1.5 min-1
Human P450 51A1 [4]; substrate 0.50 µM, listed as 14-CH2OH dihydrolanosterol
  Rate of FF-MAS formation (replicates): 3.1 min-1 and 3.0 min-1 (2×)
Human P450 51A1 [4]; substrate 0.75 µM, listed as 14-CH2OH dihydrolanosterol
  Rate of FF-MAS formation (replicates): 4.7 min⁻¹ and 4.5 min⁻¹ and 3.9 min⁻¹
Human P450 51A1 [4]; substrate 1.00 µM, listed as 14-CH2OH dihydrolanosterol
  Rate of FF-MAS formation (replicates): 6.5 min-1 (2×) and 7.1 min-1
Human P450 51A1 [4]; substrate 1.50 µM, listed as 14-CH2OH dihydrolanosterol
  Rate of FF-MAS formation (replicates): 8.9 min⁻¹ and 8.6 min⁻¹ and 11.1 min⁻¹
Human P450 51A1 [4]; substrate 2.50 µM, listed as 14-CH2OH dihydrolanosterol
  Rate of FF-MAS formation (replicates): 16.2 min⁻¹ and 16.4 min⁻¹ and 16.5 min⁻¹
Human P450 51A1 [4]; substrate 5.00 µM, listed as 14-CH2OH dihydrolanosterol
  Rate of FF-MAS formation (replicates): 25.1 min⁻¹ and 20.7 min⁻¹ and 25.9 min⁻¹
Human P450 51A1 [4]; substrate 7.50 µM, listed as 14-CH2OH dihydrolanosterol
  Rate of FF-MAS formation (replicates): 25.1 min⁻¹ and 26.3 min⁻¹ and 27.2 min⁻¹
Human P450 51A1 [4]; substrate 10.00 µM, listed as 14-CH2OH dihydrolanosterol
  Rate of FF-MAS formation (replicates): 26.4 min⁻¹ and 27.4 min⁻¹ and 26.6 min⁻¹
Human P450 51A1 [4]; substrate 15.00 µM, listed as 14-CH2OH dihydrolanosterol
  Rate of FF-MAS formation (replicates): 29.2 min⁻¹ and 33.0 min⁻¹ and 31.0 min⁻¹

## CC(C)CCCC(C)[C@H]1CC[C@@]2(C)C3=C(CC[C@]12C)[C@@]1(C)CC[C@H](O)C(C)(C)C1CC3 (stereo partly shown) [dihydrolanosterol, 24,25-dihydrolanosterol]
Human P450 51A1 [1]
  koff: 0.054 ± 0.01 s⁻¹
Human P450 51A1 [2]
  Kd: 230 ± 100 nM
Human P450 51A1 [2]; [5]
  Kd: sub-μM
Human P450 51A1 [3]
  k^+ of sterol binding to P450 51A1 (kon) used for fitting: 2e+06 M⁻¹ s⁻¹
  k^- of oxidation step of the P450-sterol complex: 0
  k^- of sterol binding to P450 51A1 (koff) used for fitting: 0.075 s⁻¹
  k^+ of oxidation step of the P450-sterol complex: 7.5 s⁻¹
Human P450 51A1 [4]; oxidation to dihydro FF-MAS (epi-dihydro FF-MAS from epi substrate), 37 °C
  kcat: 0.50 ± 0.03 s⁻¹ and 0.50 s⁻¹
Human P450 51A1 [4]; substrate 0.25 µM
  Rate of FF-MAS formation (replicates): 0.9 min-1 and 1.0 min-1 (2×)
Human P450 51A1 [4]; substrate 0.50 µM
  Rate of FF-MAS formation (replicates): 2.4 min-1 (2×) and 2.1 min-1
Human P450 51A1 [4]; substrate 0.75 µM
  Rate of FF-MAS formation (replicates): 3.4 min⁻¹ and 3.0 min⁻¹ and 3.7 min⁻¹
Human P450 51A1 [4]; substrate 1.00 µM
  Rate of FF-MAS formation (replicates): 4.1 min⁻¹ and 4.3 min⁻¹ and 3.4 min⁻¹
Human P450 51A1 [4]; substrate 1.50 µM
  Rate of FF-MAS formation (replicates): 4.8 min⁻¹ and 6.3 min⁻¹ and 5.8 min⁻¹
Human P450 51A1 [4]; substrate 2.50 µM
  Rate of FF-MAS formation (replicates): 12.8 min⁻¹ and 12.1 min⁻¹ and 9.4 min⁻¹
Human P450 51A1 [4]; substrate 5.00 µM
  Rate of FF-MAS formation (replicates): 16.4 min-1 and 15.6 min-1 (2×)
Human P450 51A1 [4]; substrate 7.50 µM
  Rate of FF-MAS formation (replicates): 21.8 min⁻¹ and 17.6 min⁻¹ and 18.3 min⁻¹
Human P450 51A1 [4]; substrate 10.00 µM
  Rate of FF-MAS formation (replicates): 20.3 min⁻¹ and 21.5 min⁻¹ and 22.5 min⁻¹
Human P450 51A1 [4]; substrate 15.00 µM
  Rate of FF-MAS formation (replicates): 19.1 min⁻¹ and 23.3 min⁻¹ and 21.3 min⁻¹
